Data from publication PMC5349910, “Discovery of BPR1K871, a quinazoline based, multi-kinase inhibitor for the treatment of AML and solid tumors: Rational design, synthesis, in vitro and in vivo evaluation” (Oncotarget, 2016).
In brackets after ≈: the same amount, converted by molar mass. Several values for one entry are separate records, joined by “and”; a condition that tells them apart may be missing. Identical values can stand only once. Like-named read-outs stand apart in the source and are kept apart here.

Assays:
MOLM-13 cells = assay: MTS cell viability assay, MOLM-13; format: cell-based, human; details: read-out: MOLM-13 EC50
Experimental: (§1) The MTS cell viability assay was conducted as previously described. The MOLM-13 human leukemia cell line was obtained from the German Resource Centre for Biological Material (DSMZ, Braunschweig, Germany); the MV4-11 cell line was purchased from the American Type Culture Collection (ATCC, Manassas, VA, USA). […] To determine cell viability after drug treatment, assay for MOLM-13 and MV4-11 was performed by seeding 10000 cells per well in a 96-well culture plate. […] After 16 h, cells were then treated with vehicle or various concentrations of compound in medium for 72 h. Viable cells were quantified using the MTS method (Promega, Madison, WI, USA) according to the manufacturer's recommended protocol. Results were determined by measuring the absorbance at 490 nm using a plate reader (Victor2; PerkinElmer, Shelton, CT, USA).

K562 cells = assay: Anti-proliferative activity, K562; format: cell-based; details: Homo sapiens, K562, read-out: K562 EC50
HCC827 cells = assay: Anti-proliferative activity, HCC827; format: cell-based; details: Homo sapiens
MV4-11 cells = assay: MTS cell viability assay, MV4-11; format: cell-based, human; details: read-out: MV4-11 EC50
Experimental: as §1

HCT-116 cells = assay: Anti-proliferative activity, HCT-116; format: cell-based, human
RS4-11 cells = assay: Anti-proliferative activity, RS4-11; format: cell-based; details: Homo sapiens
U937 cells = assay: Anti-proliferative activity, U937; format: cell-based; details: Homo sapiens, U-937, read-out: U937 EC50
CL-97 cells = assay: Anti-proliferative activity, CL-97; format: cell-based, human
H1975 cells = assay: Anti-proliferative activity, H1975; format: cell-based; details: Homo sapiens
H2228 cells = assay: Anti-proliferative activity, H2228; format: cell-based; details: Homo sapiens
FLT3 [1] = biological target: T1, FLT3 (Homo sapiens, UniProt P36888); set-up: method as in PMID 20550212, PMID 23172777, PMID 24665000; details: previously reported leads 1, 2, 3; cited from earlier work
T1 construct: FLT3 kinase catalytic domain (residues Tyr567-Ser993); made in house; host or cells: Sf9 insect cells (baculovirus, pBac-PAK8-GST-FLT3-KD)
T1 sequence (P36888 567-993): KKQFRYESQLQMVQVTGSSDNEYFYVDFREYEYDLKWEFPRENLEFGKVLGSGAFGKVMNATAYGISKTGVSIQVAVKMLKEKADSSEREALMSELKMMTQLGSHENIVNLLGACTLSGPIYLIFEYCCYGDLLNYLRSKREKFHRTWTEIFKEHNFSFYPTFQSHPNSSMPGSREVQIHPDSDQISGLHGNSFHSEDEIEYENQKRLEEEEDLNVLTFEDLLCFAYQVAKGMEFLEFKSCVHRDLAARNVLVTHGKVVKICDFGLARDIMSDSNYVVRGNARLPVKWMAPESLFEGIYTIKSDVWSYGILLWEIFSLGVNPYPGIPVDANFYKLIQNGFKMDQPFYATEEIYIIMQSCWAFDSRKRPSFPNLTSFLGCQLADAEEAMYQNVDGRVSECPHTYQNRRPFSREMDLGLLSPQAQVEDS

[2] = tested on: Detroit 551 (human normal skin fibroblast cells); assay: MTS cell viability assay, Detroit-551; format: cell-based; details: 72 h
Experimental: The MTS cell viability assay was conducted as previously described. The MOLM-13 human leukemia cell line was obtained from the German Resource Centre for Biological Material (DSMZ, Braunschweig, Germany); the MV4-11 cell line was purchased from the American Type Culture Collection (ATCC, Manassas, VA, USA). Both the leukemia cell lines were maintained in RPMI 1640 medium supplemented with 10% fetal bovine serum (FBS), 10 UmL^-1 penicillin, and […] streptomycin at 37°C and 5% CO2. The Detroit-551, COLO205, and Mia-PaCa2 cell lines were purchased from the American Type Culture Collection (ATCC, Manassas, VA, USA) and cultured according to instructions of ATCC. To determine cell viability after drug treatment, assay for MOLM-13 and MV4-11 was performed by seeding 10000 cells per well in a 96-well culture plate. Detroit-551, COLO205, and Mia-PaCa2 were seeded at density of 2500, 4000, and 3750 cells per well, respectively. After 16 h, cells were then treated with vehicle or various concentrations of compound in medium for 72 h. Viable cells were quantified using the MTS method (Promega, Madison, WI, USA) according to the manufacturer's recommended protocol. Results were determined by measuring the absorbance at 490 nm using a plate reader (Victor2; PerkinElmer, Shelton, CT, USA).

FLT3 [3] = biological target: T1, FLT3; assay: FLT3 kinase inhibition assay (Kinase-Glo); format: biochemical; details: for IC50: mean of at least two independent experiments, within ±15%; for selectivity for FLT3 over AURKA: from enzyme IC50
Experimental: The FLT3 assay was conducted as previously described. Briefly, GST-FLT3-KD^WT containing the FLT3 kinase catalytic domain (residues Tyr567-Ser993) was expressed in Sf9 insect cells transfected with the baculovirus containing pBac-PAK8-GST-FLT3-KD plasmid.
(§2) Following incubation, 50 μL Kinase-Glo Plus Reagent (Promega, Madison, WI, USA) was added, and the mixture was incubated at 25°C for 20 min. A 70 μL aliquot of each reaction mixture was transferred to a black microliter plate, and luminescence was measured on a Wallac Vector 1420 multilabel counter (PerkinElmer, Shelton, CT, USA).

Aqueous solubility = format: physicochemical; details: in water
AURKB = AURKB (Homo sapiens, UniProt Q96GD4); assay: AURKB inhibition assay (Kinase-Glo); format: biochemical; set-up: full length His-tagged Aurora-B (residues M1∼A344); His; purchased Invitrogen PV6130; details: 500 nM; duplicate determination
Chain of AURKB (Q96GD4 whole entry): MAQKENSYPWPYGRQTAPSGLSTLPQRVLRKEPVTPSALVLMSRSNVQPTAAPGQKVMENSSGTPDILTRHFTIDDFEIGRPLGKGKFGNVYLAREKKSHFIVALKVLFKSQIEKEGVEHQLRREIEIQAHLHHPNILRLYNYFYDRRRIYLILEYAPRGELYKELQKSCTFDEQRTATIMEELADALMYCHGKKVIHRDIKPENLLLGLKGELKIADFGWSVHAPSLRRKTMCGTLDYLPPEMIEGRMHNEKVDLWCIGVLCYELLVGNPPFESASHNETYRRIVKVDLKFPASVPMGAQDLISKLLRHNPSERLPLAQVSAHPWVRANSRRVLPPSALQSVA
Experimental: AURKB assay was conducted as previously described. Briefly, the recombinant full length His-tagged Aurora-B (residues M1∼A344) was purchased from Invitrogen (Catalog number: PV6130). The kinase assay was carried out in 96-well plates with the tested compound in reaction solution (50 mM Tris-HCl pH 7.4, 10 mM NaCl, 10 mM MgCl2, 0.01% BSA, 5 mM ATP, 1 mM DTT and 15 mM tetra(LRRASLG) peptide, and 40 ng recombinant Aurora-B) at 30°C for 180 min.
as §2

AURKA = biological target: T2, AURKA (Homo sapiens, UniProt O14965); assay: AURKA inhibition assay (Kinase-Glo); format: biochemical; details: for IC50: mean of at least two independent experiments, within ±15%; for selectivity for AURKA over FLT3: from enzyme IC50
T2 construct: recombinant GST-AURKA (residues Ser123-Ser401) containing the kinase domain; GST (N); made in house; host or cells: Sf9 insect cells
T2 sequence (O14965 123-401): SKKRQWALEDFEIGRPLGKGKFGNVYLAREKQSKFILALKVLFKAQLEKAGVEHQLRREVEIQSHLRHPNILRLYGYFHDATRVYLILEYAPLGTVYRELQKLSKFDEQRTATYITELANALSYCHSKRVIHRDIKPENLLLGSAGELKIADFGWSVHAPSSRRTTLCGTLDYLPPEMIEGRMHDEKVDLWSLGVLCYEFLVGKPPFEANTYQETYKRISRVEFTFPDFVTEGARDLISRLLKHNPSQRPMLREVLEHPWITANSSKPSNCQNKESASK
Experimental: AURKA assay was conducted as previously described. Briefly, the recombinant GST-AURKA (residues Ser123-Ser401) containing the kinase domain was expressed in Sf9 insect cells.
Following incubation, 50 μL Kinase-Glo Plus Reagent (Promega, Madison, WI, USA) was added, and the mixture was incubated at 25°C for 20 min.

Mia-PaCa2 cells = assay: Anti-proliferative activity, Mia-PaCa2; format: cell-based, human; details: Homo sapiens, MIA PaCa-2, Human Pancreatic Cancer; supplement values ± SEM
[4] = Homo sapiens, MOLM-13, 72 h, MTS, 72 h, AML-FLT3-ITD (heterozygous), supplement values ± SEM
[5] = Homo sapiens, MV4-11, 72 h, MTS, 72 h, AML-FLT3-ITD (homozygous), supplement values ± SEM

Row | SMILES | EC50 (MOLM-13 cells; [4]) | EC50 (MV4-11 cells; [5]) | EC50 [2] | IC50 (FLT3 [3]) | inhibition at 0.5 µM (AURKB) | IC50 (AURKA) | further results
1 | CCN(CCCOc1ccc2c(Nc3cc(CC(=O)Nc4cccc(F)c4)n[nH]3)ncnc2c1)CCOP(=O)(O)O [Barasertib] |  |  |  |  |  |  | EC50 (MOLM-13 cells; Homo sapiens, MOLM-13, 72 h): 42 nM; EC50 (K562 cells): > 10 µM; EC50 (HCC827 cells; HCC827, read-out: HCC827 EC50): 127 nM; EC50 (MV4-11 cells; Homo sapiens, MV4-11, 72 h): 17 nM; EC50 (HCT-116 cells; Homo sapiens, HCT-116, read-out: HCT-116 EC50): 0.067 µM; EC50 (RS4-11 cells; RS4-11, read-out: RS4-11 EC50): 0.011 µM; EC50 (U937 cells): > 10 µM; EC50 (CL-97 cells; Homo sapiens, CL97, read-out: CL-97 EC50): 0.454 µM; EC50 (H1975 cells; NCI-H1975, read-out: H1975 EC50): 0.39 µM; EC50 (H2228 cells; NCI-H2228, read-out: H2228 EC50): 0.34 µM
2 | O=C(Nc1ccccc1)Nc1ccc(CCNc2ncnc3oc(-c4ccccc4)c(-c4ccccc4)c23)cc1 [Compound 1] |  |  |  |  |  |  | IC50 (FLT3 [1]): > 10 µM
3 | COc1cc2ncnc(NCCc3ccc(NC(=O)Nc4ccccc4)cc3)c2cc1OC [Compound 2] |  |  |  |  |  |  | IC50 (FLT3 [1]): > 10 µM
4 | COc1cc2ncnc(NCCc3cnc(NC(=O)Nc4cccc(Cl)c4)s3)c2cc1OC [Compound 4] | ~40 nM | ~40 nM | 9.1 µM | 127 nM | 100% | 5 nM and 4.9 nM | EC50 (MOLM-13 cells; MTS, 72 h, AML-FLT3-ITD (heterozygous), supplement values ± SEM): 20 nM; EC50 (MV4-11 cells; MTS, 72 h, AML-FLT3-ITD (homozygous), supplement values ± SEM): 43 nM; solubility (Aqueous solubility): 0.452 µg/mL (≈ 0.932 µM)
5 | O=C(Nc1cccc(Cl)c1)Nc1ncc(CCNc2ncnc3ccccc23)s1 [Compound 5] | 69 nM | 65 nM | 6.6 µM | 1410 nM | 92% | 15 nM | selectivity for AURKA over FLT3 (AURKA): 100 fold
6 | COCCOc1cc2ncnc(NCCc3cnc(NC(=O)Nc4cccc(Cl)c4)s3)c2cc1OCCOC [Compound 6] | 90 nM | 102 nM | 3.5 µM | 98 nM | 70.4% | 6 nM | 
7 | COCCOc1ccc2ncnc(NCCc3cnc(NC(=O)Nc4cccc(Cl)c4)s3)c2c1 [Compound 7] | 412 nM | 342 nM | 8 µM | 1290 nM | 42% | 10 nM | selectivity for AURKA over FLT3 (AURKA): 100 fold
8 | COCCOc1ccc2c(NCCc3cnc(NC(=O)Nc4cccc(Cl)c4)s3)ncnc2c1 [Compound 8] | 8 nM | 9.5 nM | 2.9 µM | 103 nM | 85.9% | 11 nM | solubility (Aqueous solubility): 0.107 µg/mL (≈ 0.214 µM)
9 | CN(C)CCOc1ccc2c(NCCc3cnc(NC(=O)Nc4cccc(Cl)c4)s3)ncnc2c1 [Compound 9] | 40 nM | 57 nM | 3.4 µM | 58 nM | 90.1% | 17 nM | 
10 | CN(C)CCCOc1ccc2c(NCCc3cnc(NC(=O)Nc4ccccc4)s3)ncnc2c1 [Compound 11] | 8 nM | 21.4 nM | 10.9 µM | 94 nM | 75.8% |  | 
11 | COc1cccc(NC(=O)Nc2ncc(CCNc3ncnc4cc(OCCCN(C)C)ccc34)s2)c1 [Compound 12] | 12.4 nM | 10.9 nM | 9.8 µM | 98 nM | 90% | 19 nM | 
12 | COc1ccc(Cl)cc1NC(=O)Nc1ncc(CCNc2ncnc3cc(OCCCN(C)C)ccc23)s1 [Compound 13] | 6.7 nM | 2.1 nM | 5.3 µM | 16 nM | 48.6% | 464 nM | selectivity for FLT3 over AURKA (FLT3 [3]): 30 fold
13 | Cc1ccc(Cl)cc1NC(=O)Nc1ncc(CCNc2ncnc3cc(OCCCN(C)C)ccc23)s1 [Compound 14] | 12.7 nM | 3.3 nM | 3.8 µM | 20.5 nM | 63% | 131 nM | selectivity for FLT3 over AURKA (FLT3 [3]): ~8 fold
14 | CO[C@@H]1[C@H](N(C)C(=O)c2ccccc2)C[C@H]2O[C@]1(C)n1c3ccccc3c3c4c(c5c6ccccc6n2c5c31)C(=O)NC4 [PKC412] |  |  |  |  |  |  | EC50 (HCC827 cells; HCC827, NSCLC-EGFR L858R, supplement values ± SEM, read-out: HCC827 EC50): 687 nM
15 | CNC(=O)c1cc(Oc2ccc(NC(=O)Nc3ccc(Cl)c(C(F)(F)F)c3)cc2)ccn1 [Sorafenib] |  |  |  |  |  |  | EC50 (Mia-PaCa2 cells): 7.79 µM; EC50 (HCT-116 cells; HCT-116, Human Colon Cancer, supplement values ± SEM, read-out: HCT-116 EC50): 8.8 µM; EC50 (RS4-11 cells; RS4-11, ALL-wt-FLT3 (homozygous), supplement values ± SEM, read-out: RS4-11 EC50): 9.3 µM; EC50 (CL-97 cells; CL97, Human Lung Cancer, supplement values ± SEM, read-out: CL-97 EC50): 7.05 µM; EC50 (H1975 cells; NCI-H1975, NSCLC-EGFR LR/TM, supplement values ± SEM, read-out: H1975 EC50): 7.01 µM; EC50 (H2228 cells; NCI-H2228, NSCLC-ALK, supplement values ± SEM, read-out: H2228 EC50): 7.97 µM
